Results on 50 compounds are retold here after ChEMBL document CHEMBL4765282, “Design, synthesis and biological evaluation of 1H-pyrazolo [3,4-d]pyrimidine derivatives as PAK1 inhibitors that trigger apoptosis, ER stress and anti-migration effect in MDA-MB-231 cells” (Eur J Med Chem, 2020).

Molecules are shown by their SMILES. Activity calls are given as the source filed them. The calls are words filed in the database; no cut-off is given here.

In assay [1] the target is Serine/threonine-protein kinase PAK 1 (Homo sapiens, UniProt Q13153). Briefly: Inhibition of PAK1 (unknown origin) […] measured after 40 mins by ADP-glo kinase assay. A general note: ADP-Glo turns the ADP formed in a reaction into a luminescent signal.
Chain of Serine/threonine-protein kinase PAK 1 (Q13153 whole entry): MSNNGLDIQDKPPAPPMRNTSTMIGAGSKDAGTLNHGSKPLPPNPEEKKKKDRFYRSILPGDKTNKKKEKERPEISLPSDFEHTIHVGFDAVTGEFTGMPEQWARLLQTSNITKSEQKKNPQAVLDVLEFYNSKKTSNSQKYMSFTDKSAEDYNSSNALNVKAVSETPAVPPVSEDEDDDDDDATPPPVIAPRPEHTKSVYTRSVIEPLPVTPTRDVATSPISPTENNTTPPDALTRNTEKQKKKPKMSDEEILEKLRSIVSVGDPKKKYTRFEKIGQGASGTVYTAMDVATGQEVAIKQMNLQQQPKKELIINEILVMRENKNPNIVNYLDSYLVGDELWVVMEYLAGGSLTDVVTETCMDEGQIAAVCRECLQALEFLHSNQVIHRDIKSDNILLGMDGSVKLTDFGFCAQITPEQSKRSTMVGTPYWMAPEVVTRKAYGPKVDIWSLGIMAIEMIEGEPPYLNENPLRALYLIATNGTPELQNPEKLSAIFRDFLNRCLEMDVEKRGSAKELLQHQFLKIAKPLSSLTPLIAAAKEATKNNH
In assay [2] the test system is MDA-MB-231. Briefly: Down regulation of PAK1 expression in human MDA-MB-231 cells at 5 uM measured after 24 hrs by immunofluorescence analysis. It is filed as functional, cell-based.

One may read the IC50 as the concentration at which inhibition is half-maximal. A low value points to greater potency.

In assay [1], `O=C(c1ccc(Cl)cc1)N1CCC(Nc2ncnc3[nH]ncc23)CC1` came in with an IC50 of 9.44 µM.
On the same count and under the same terms, with `O=C(c1cccc(Cl)c1Cl)N1CCC(Nc2ncnc3[nH]ncc23)CC1` the figure was 6.77 µM.
Still for that read-out and setting: for `Cc1ccc(C(=O)NC2CCN(c3ncnc4[nH]ncc34)CC2)cc1` the value was 5.61 µM; for `COc1ccc(NC(=O)N2CCC(Nc3ncnc4[nH]ncc34)CC2)cc1`, 13.8 µM.
Still for that read-out and setting: for `O=C(Nc1ccc(Br)cc1)N1CCC(Nc2ncnc3[nH]ncc23)CC1` the value was 17.9 µM.
Compound `Cc1cccc(C)c1NC(=O)N1CCC(Nc2ncnc3[nH]ncc23)CC1` came in with an IC50 in assay [1] of 6.27 µM.
`O=C(c1ccccc1Cl)N1CCC(Nc2ncnc3[nH]ncc23)CC1`: in assay [1], the IC50 is 6.84 µM.
Still for that read-out and setting: with `O=C(Nc1ccc(Br)cc1)NC1CCN(c2ncnc3[nH]ncc23)CC1` the figure was 4.03 µM; with `O=C(Nc1cccc2ccccc12)N1CCC(Nc2ncnc3[nH]ncc23)CC1`, more than 50 µM.
On the same count and under the same terms, with `O=C(c1ccc(Br)cc1)N1CCC(Nc2ncnc3[nH]ncc23)CC1` the figure was 29.2 µM.
In the case of `O=C(Nc1cccc(Cl)c1)N1CCC(Nc2ncnc3[nH]ncc23)CC1`, in assay [1], half-maximal inhibition (IC50) was put at 7.18 µM.
Same read-out and setting: for `O=C(Nc1ccc(Cl)c(Cl)c1)N1CCC(Nc2ncnc3[nH]ncc23)CC1` the value was 10.8 µM; for `O=C(Nc1ccc(F)cc1F)NC1CCN(c2ncnc3[nH]ncc23)CC1`, 1.14 µM.
Still for that read-out and setting: with `Cc1ccc(NC(=O)NC2CCN(c3ncnc4[nH]ncc34)CC2)cc1` the figure was 4.71 µM; with `O=C(NC1CCN(c2ncnc3[nH]ncc23)CC1)c1cccc(Cl)c1Cl`, 4.17 µM.
On the same count and under the same terms, for `O=C(Nc1ccc(C(F)(F)F)cc1)N1CCC(Nc2ncnc3[nH]ncc23)CC1` the value was 15.8 µM.
Consider `COc1ccc(C(=O)NC2CCN(c3ncnc4[nH]ncc34)CC2)cc1`, for which it took 8.82 µM to reach half-maximal inhibition in assay [1] (IC50).
Same read-out and setting: for `FC(F)(F)c1cc(NC(=S)N2CCC(Nc3ncnc4[nH]ncc34)CC2)cc(C(F)(F)F)c1` the value was 8.71 µM; for `O=C(c1ccc(F)cc1)N1CCC(Nc2ncnc3[nH]ncc23)CC1`, 7.82 µM.
In assay [1], `O=C(Nc1cccc2ccccc12)NC1CCN(c2ncnc3[nH]ncc23)CC1` returned an IC50 of 11.1 µM.
Still for that read-out and setting: with `O=C(NC1CCN(c2ncnc3[nH]ncc23)CC1)c1cccc(C(F)(F)F)c1` the figure was 2.51 µM; with `O=C(Nc1ccccc1Cl)NC1CCN(c2ncnc3[nH]ncc23)CC1`, 0.56 µM.
The same measure, in the same setting: for `S=C(Nc1ccccc1Cl)N1CCC(Nc2ncnc3[nH]ncc23)CC1` the value was 6.67 µM; for `O=C(NC1CCN(c2ncnc3[nH]ncc23)CC1)c1ccccc1Cl`, 5.24 µM.
On to `CCn1c(=O)c(-c2ccc(-c3cncs3)cc2Cl)cc2cnc(Nc3ccc(N4CCN(C)CC4)cc3)nc21`, for which the result in assay [2] was Active.
As for `S=C(Nc1cccc(Cl)c1)N1CCC(Nc2ncnc3[nH]ncc23)CC1`, in assay [1], inhibition was half-maximal at 7.89 µM (IC50).
Still for that read-out and setting: for `O=C(NC1CCN(c2ncnc3[nH]ncc23)CC1)c1ccc(F)cc1` the value was 4.54 µM.
The same measure, in the same setting: with `Cc1cc(C)c(C(=O)N2CCC(Nc3ncnc4[nH]ncc34)CC2)c(C)c1` the figure was 31.1 µM; with `O=C(NC1CCN(c2ncnc3[nH]ncc23)CC1)c1ccc(Br)cc1`, 16.4 µM.
On the same count and under the same terms, for `O=C(NC1CCN(c2ncnc3[nH]ncc23)CC1)c1ccc(C(F)(F)F)cc1` the value was 5.74 µM.
Take `COc1ccc(NC(=S)N2CCC(Nc3ncnc4[nH]ncc34)CC2)cc1`: the IC50 in assay [1] stood at 15.1 µM.
The same measure, in the same setting: for `O=C(Nc1ccc(Cl)cc1Cl)N1CCC(Nc2ncnc3[nH]ncc23)CC1` the value was 5.46 µM; for `O=C(c1cccc(C(F)(F)F)c1)N1CCC(Nc2ncnc3[nH]ncc23)CC1`, more than 50 µM.
On the same count and under the same terms, for `Cc1cccc(C)c1NC(=S)N1CCC(Nc2ncnc3[nH]ncc23)CC1` the value was 7.36 µM; for `Cc1cc(C)c(C(=O)NC2CCN(c3ncnc4[nH]ncc34)CC2)c(C)c1`, 6.77 µM.
Still for that read-out and setting: with `Cc1cccc(C)c1NC(=O)NC1CCN(c2ncnc3[nH]ncc23)CC1` the figure was 2.16 µM; with `O=C(Nc1cccc(Cl)c1)NC1CCN(c2ncnc3[nH]ncc23)CC1`, 1.24 µM.
In the case of `Cc1ccccc1C(=O)N1CCC(Nc2ncnc3[nH]ncc23)CC1`, in assay [1], the midpoint of inhibition, the IC50, lay at 33.2 µM.
Still for that read-out and setting: for `S=C(Nc1cccc2ccccc12)N1CCC(Nc2ncnc3[nH]ncc23)CC1` the value was more than 50 µM.
On the same count and under the same terms, with `COc1ccc(NC(=O)NC2CCN(c3ncnc4[nH]ncc34)CC2)cc1` the figure was 6.37 µM; with `O=C(Nc1ccc(Cl)c(Cl)c1)NC1CCN(c2ncnc3[nH]ncc23)CC1`, 2.29 µM.
The compound `O=C(Nc1cc(C(F)(F)F)cc(C(F)(F)F)c1)N1CCC(Nc2ncnc3[nH]ncc23)CC1` displayed an IC50 in assay [1] of 9.32 µM.
Same read-out and setting: with `Cc1ccc(C(=O)N2CCC(Nc3ncnc4[nH]ncc34)CC2)cc1` the figure was 39.5 µM; with `O=C(c1ccc(C(F)(F)F)cc1)N1CCC(Nc2ncnc3[nH]ncc23)CC1`, more than 50 µM; with `O=C(Nc1ccc(F)cc1F)N1CCC(Nc2ncnc3[nH]ncc23)CC1`, 5.17 µM.
For `Cc1ccc(NC(=O)N2CCC(Nc3ncnc4[nH]ncc34)CC2)cc1`, inhibition in assay [1] was half-maximal at 17.4 µM (IC50).
As to `Cc1ccc(NC(=S)N2CCC(Nc3ncnc4[nH]ncc34)CC2)cc1`, in assay [1], the IC50 was found to be 19.6 µM.
The same measure, in the same setting: for `Cc1ccccc1C(=O)NC1CCN(c2ncnc3[nH]ncc23)CC1` the value was 6.26 µM.
The same measure, in the same setting: for `O=C(Nc1ccc(C(F)(F)F)cc1)NC1CCN(c2ncnc3[nH]ncc23)CC1` the value was 7.15 µM.
Same read-out and setting: for `O=C(Nc1ccccc1Cl)N1CCC(Nc2ncnc3[nH]ncc23)CC1` the value was 5.24 µM.
